The source of these data is ChEMBL document CHEMBL1687935, “Ferrocenyl chalcones versus organic chalcones: a comparative study of their nematocidal activity” (Bioorg Med Chem, 2011).

Activity calls are given as the source filed them. The rule behind the calls is not given here.

By IC50 is commonly meant the midpoint of a concentration-inhibition curve. The LC50 is the concentration lethal to half of the exposed cells or organisms.

Data set [1] has as its system Caenorhabditis elegans. Kind of data set: Nematocidal activity against Caenorhabditis elegans assessed as mortality on day 3. It is filed as functional. Further details: concentration or dose not given beside the values.
Data set [2] relates to Caenorhabditis elegans. In words: Nematocidal activity against Caenorhabditis elegans assessed as inhibition of reproduction on day 3. It is filed as functional.
The subject of another data set is Plasmodium falciparum. Kind of data set: Antiplasmodial activity against Plasmodium falciparum. It is filed as functional, organism-based.
Data set [3] can be described thus: Inhibition of Globodera pallida hatching. It is filed as functional.
Data set [4] is described as follows: Inhibition of Globodera rostochiensis hatching. It is filed as functional.
Data set [5] in a line: Toxicity against Globodera pallida.
Data set [6] is described as follows: Toxicity against Globodera rostochiensis.

As for `CCCCOc1ccc(C(=O)/C=C/c2ccccc2)cc1`, the result in the data set with Caenorhabditis elegans [1] was Active. The inhibition result in the data set on Caenorhabditis elegans [2] was “Active”.
For `O=C(/C=C/c1ccccc1)c1cccc(Cl)c1`, in the data set with Caenorhabditis elegans [1], the Activity came out at 100%. For the same compound, the “inhibition (INH)” value in the data set with Caenorhabditis elegans [2] was 0%.
The like results for `COc1ccc(C(=O)/C=C/c2ccccc2)c(OC)c1` were, in that order, 100% and 0%.
For the compound `O=C(/C=C/c1cccnc1)c1ccc(F)cc1`, the Activity in the data set on Caenorhabditis elegans [1] worked out at 100%. In addition, the “inhibition (INH)” value in the data set with Caenorhabditis elegans [2] was 0%. Moreover, the IC50 in the data set on Plasmodium falciparum is 17 µM.
On to `CCOc1ccc(C(=O)/C=C/c2ccccc2)cc1`, for which the Activity with Caenorhabditis elegans [1] was found to be 100%. Further, the “inhibition (INH)” value in the data set on Caenorhabditis elegans [2] is 0%.
Taken in the same sequence, the figures for `O=C(/C=C/c1ccccc1)c1ccc(Cl)cc1Cl` were 100% and 0%.
The like results for `O=C(/C=C/c1ccccc1)c1cccs1` were, in that order, 100% and 0%.
On to `O=C(/C=C/c1ccccc1)c1ccco1`, for which the outcome in the data set on Caenorhabditis elegans [1] was Active. The inhibition entry in the data set on Caenorhabditis elegans [2] was “Active”.
As for `O=C(/C=C/c1ccccc1)c1ccccc1` [CHALCONE], the IC50 in data set [3] and in data set [4] was 7 mM throughout. Besides, the Activity with Caenorhabditis elegans [1] is recorded as 100%. Further, the “inhibition (INH)” value in the data set with Caenorhabditis elegans [2] was 0%. The LC50 in data set [5] and in data set [6] was 33 mM throughout.
As for `O=C(/C=C/c1ccccc1)c1ccccc1Cl`, the outcome with Caenorhabditis elegans [1] was Active. The inhibition result in the data set on Caenorhabditis elegans [2] was “Active”.
As for `O=C(/C=C/c1ccccc1)c1ccc(F)cc1F`, in the data set with Caenorhabditis elegans [1], the Activity was found to be 100%. The “inhibition (INH)” value in the data set on Caenorhabditis elegans [2] is 0%.
